Laboratory results as given in ChEMBL document CHEMBL1614632, “Trend analysis of a database of intravenous pharmacokinetic parameters in humans for 670 drug compounds” (Drug Metab Dispos, 2008).

Key:
clinical [1] = details: human, in vivo, iv, Vdss
clinical [2] = details: human, in vivo, iv
clinical [3] = details: human, in vivo, iv, t1/2
clinical [4] = details: human, in vivo, iv, CL

SMILES	Vd (clinical [1]) [L/kg]	MRT (clinical [2]) [h]	half-life (clinical [3]) [h]	clearance (clinical [4]) [mL/min/kg]
COc1cc(OC)c(C(=O)CCCN2CCCC2)c(OC)c1 [BUFLOMEDIL]	1.3	3.9	3.3	5.6
CCCCNc1cc(C(=O)O)cc(S(N)(=O)=O)c1Oc1ccccc1 [BUMETANIDE]	0.16	1.1	1.2	2.5
CCCCN1CCCCC1C(=O)Nc1c(C)cccc1C (stereo unspecified) [BUPIVACAINE]	0.84	3.3	3.1	4.3
CS(=O)(=O)OCCCCOS(C)(=O)=O [BUSULFAN]	0.55	3.8	3.4	2.4
Cn1c(=O)c2c(ncn2C)n(C)c1=O [CAFFEINE]	0.63	7.5	4.9	1.4
CC1(C)S[C@@H]2[C@H](NC(=O)C(C(=O)O)c3ccccc3)C(=O)N2[C@H]1C(=O)O (stereo partly specified) [CARBENICILLIN]	0.17	1.5	1.1	1.9
COc1ccccc1OCCNCC(O)COc1cccc2[nH]c3ccccc3c12 (stereo unspecified) [CARVEDILOL]	1.3	2.8	2.4	7.8
CC1=C(C(=O)O)N2C(=O)[C@@H](NC(=O)[C@H](N)c3ccc(O)cc3)[C@H]2SC1 [CEFADROXIL]	0.23	1.5	1.1	2.5
N[C@@H](C(=O)N[C@@H]1C(=O)N2C(C(=O)O)=C(CSc3c[nH]nn3)CS[C@H]12)c1ccc(O)cc1 [CEFATRIZINE]	0.22	1.1	1.2	3.3
CC=CC1=C(C(=O)O)N2C(=O)[C@@H](NC(=O)[C@H](N)c3ccc(O)cc3)[C@H]2SC1 [CEFPROZIL]	0.21	1.2	1.2	2.9
CC1=C(C(=O)O)N2C(=O)[C@@H](NC(=O)[C@H](N)C3=CCC=CC3)[C@H]2SC1 [CEPHRADINE]	0.21	1.1	0.85	3.3
COCc1c(C(C)C)nc(C(C)C)c(/C=C/[C@@H](O)C[C@@H](O)CC(=O)O)c1-c1ccc(F)cc1 [CERIVASTATIN]	0.33	1.8	1.8	2.9
O=C(O)CCCc1ccc(N(CCCl)CCCl)cc1 [CHLORAMBUCIL]	0.26	1.5	1.1	2.8
Clc1cccc(N2CCNCC2)c1 [CHLOROPHENYLPIPERAZINE]	2.5	7	4.7	6.1
CN(C)CCCN1c2ccccc2Sc2ccc(Cl)cc21 [CHLORPROMAZINE]	10	10	11	16
CCCNC(=O)NS(=O)(=O)c1ccc(Cl)cc1 [CHLORPROPAMIDE]	0.19	70	46	0.045
CN(C)[C@@H]1C(O)=C(C(N)=O)C(=O)[C@@]2(O)C(O)=C3C(=O)c4c(O)ccc(Cl)c4[C@@](C)(O)[C@H]3C[C@@H]12 [CHLORTETRACYCLINE]	0.9	7.4	7	2
NS(=O)(=O)c1cc(C2(O)NC(=O)c3ccccc32)ccc1Cl (stereo unspecified) [CHLORTHALIDONE]	3.9	43	36	1.5
CCC#CC[C@H](C)[C@H](O)C#C[C@@H]1[C@H]2C/C(=C/COCC(=O)O)C[C@H]2C[C@H]1O [CICAPROST]	0.08	0.35	1.1	3.8
Nc1ccn(C[C@@H](CO)OCP(=O)(O)O)c(=O)n1.O.O [CIDOFOVIR]	0.49	3.3	2.6	2.5
c1ccc(C2(c3ccccc3)CC2C2=NCCN2)cc1 (stereo unspecified) [CIFENLINE]	4.1	7.8	7.3	8.6
COc1ccc([C@]2(C#N)CC[C@@H](C(=O)O)CC2)cc1OC1CCCC1 [CILOMILAST]	0.23	8.5	7.9	0.5
CN/C(=N/CCSCc1nc[nH]c1C)NC#N [CIMETIDINE]	1.2	2.5	2.2	8.1
CC[C@H]1OC(=O)[C@H](C)[C@@H](O[C@H]2C[C@@](C)(OC)[C@@H](O)[C@H](C)O2)[C@H](C)[C@@H](O[C@@H]2O[C@H](C)C[C@H](N(C)C)[C@H]2O)[C@](C)(OC)C[C@@H](C)C(=O)[C@H](C)[C@@H](O)[C@]1(C)O [CLARITHROMYCIN]	1.5	3.4	2.8	7.3
O=C(O)[C@H]1/C(=C/CO)O[C@@H]2CC(=O)N21 [CLAVULANIC ACID]	0.22	1	0.9	3.1

SMILES	Vd (clinical [1]) [L/kg]	MRT (clinical [2]) [h]	half-life (clinical [3]) [h]	clearance (clinical [4]) [mL/min/kg]
NC1CCN(c2c(F)cc3c(=O)c(C(=O)O)cn(C4CC4)c3c2Cl)C1 (stereo unspecified) [CLINAFLOXACIN]	1.9	6.7	5.4	4.7
O=C1CN=C(c2ccccc2Cl)c2cc([N+](=O)[O-])ccc2N1 [CLONAZEPAM]	2.9	55	38	0.88
O=C(O)C1N=C(c2ccccc2)c2cc(Cl)ccc2NC1=O (stereo unspecified) [CLORAZEPIC ACID]	0.2	3	2.4	1.1
CN1C(=O)CC[C@H]1c1cccnc1 [COTININE]	1.1	21	17	0.89
O=C1CN(/N=C/c2ccc(-c3ccc([N+](=O)[O-])cc3)o2)C(O)=N1 [DANTROLENE]	0.37	14	10	0.43
Nc1ncn([C@H]2C[C@H](O)[C@@H](CO)O2)c(=O)n1 [DECITABINE]	4.6	0.59	0.58	130
CCC(CC)COC(C(=O)OCCN(C)C)(c1ccccc1)c1ccccc1 [DENAVERINE]	7.1	21	34	5.7
NC(=O)CC[C@@H]1NC(=O)[C@H](Cc2ccccc2)NC(=O)[C@H](Cc2ccc(O)cc2)NC(=O)CCSSC[C@@H](C(=O)N2CCC[C@H]2C(=O)N[C@H](CCCN=C(N)N)C(=O)NCC(N)=O)NC(=O)[C@H](CC(N)=O)NC1=O [DESMOPRESSIN]	0.3	3.6	3	1.4
CCCCCN(CCCOC)C(=O)[C@@H](CCC(=O)O)NC(=O)c1ccc(Cl)c(Cl)c1 [DEXLOXIGLUMIDE]	0.18	0.79	1.2	3.7
COC(=O)C1=C(C)NC(C)=C(C(=O)OCCCN2CCC(c3ccccc3)(c3ccccc3)CC2)[C@@H]1c1cccc([N+](=O)[O-])c1 [DEXNIGULDIPINE]	8.4	15	22	9.3
CC1=NS(=O)(=O)c2cc(Cl)ccc2N1 [DIAZOXIDE]	0.21	58	48	0.06
O=C(O)C(Cl)Cl [DICHLOROACETIC ACID]	0.19	0.6	0.65	5.3
O=C(O)Cc1ccccc1Nc1c(Cl)cccc1Cl [DICLOFENAC]	0.22	1	1.4	3.5
Cc1onc(-c2c(Cl)cccc2Cl)c1C(=O)N[C@@H]1C(=O)N2[C@@H]1SC(C)(C)[C@@H]2C(=O)O [DICLOXACILLIN]	0.11	0.92	0.88	2
C[C@H]1O[C@@H](O[C@H]2[C@@H](O)C[C@H](O[C@H]3[C@@H](O)C[C@H](O[C@H]4CC[C@@]5(C)[C@H](CC[C@@H]6[C@@H]5C[C@@H](O)[C@]5(C)[C@@H](C7=CC(=O)OC7)CC[C@]65O)C4)O[C@@H]3C)O[C@@H]2C)C[C@H](O)[C@@H]1O [DIGOXIN]	4.1	40	38	1.7
CCN1CC(CCN2CCOCC2)C(c2ccccc2)(c2ccccc2)C1=O (stereo unspecified) [DOXAPRAM]	1.2	3.7	4.1	5.3
CN(C)CCC=C1c2ccccc2COc2ccccc21 [DOXEPIN]	12	15	15	14
C[C@H]1O[C@@H](n2cc(F)c(=O)[nH]c2=O)[C@H](O)[C@@H]1O [DOXIFLURIDINE]	0.28	0.46	0.35	11
COc1cccc2c1C(=O)c1c(O)c3c(c(O)c1C2=O)C[C@@](O)(C(=O)CO)C[C@@H]3O[C@H]1C[C@H](N)[C@H](O)[C@H](C)O1 [DOXORUBICIN]	22	24	32	15
C[C@H]1c2cccc(O)c2C(=O)C2=C(O)[C@]3(O)C(=O)C(C(N)=O)=C(O)[C@@H](N(C)C)[C@@H]3[C@@H](O)[C@@H]21.O [DOXYCYCLINE]	0.69	25	14	0.46
CCOc1ccc(/C=C2\NCCc3cc(OCC)c(OCC)cc32)cc1OCC [DROTAVERINE]	1.9	9	9.3	3.5
Cn1c(=O)c2c(ncn2CC(O)CO)n(C)c1=O (stereo unspecified) [DYPHYLLINE]	0.42	1.5	1.7	4.8
CC[N+](C)(C)c1cccc(O)c1.[Br-] [EDROPHONIUM BROMIDE]	1.1	1.9	1.8	9.6
C[C@H](N[C@@H](CCc1ccccc1)C(=O)O)C(=O)N1CCC[C@H]1C(=O)O [ENALAPRILAT ANHYDROUS]	0.38	4	39	1.6
